According to patent US11434205B2, “Substituted imidazole carboxylate derivatives and the use thereof” (priority 2018, dated 2022):
Like-named read-outs stand apart in the source and are kept apart here.

Key:
rats [1] = experiment: Loss of righting reflexes (LORR) assay in rats, ED50 by up and down method; format: in vivo, rat; conditions: tail vein; for ED50: Rattus norvegicus
How it was run: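 Adult male Sprague-Dawley rats (250-300 g) dosed i.v. via tail vein at 0.1 mL/s. Anesthesia scored as loss of righting reflex lasting >30 s; ED50 derived by up-and-down method.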

rats [2] = system: rats
Protocol: Adult male Sprague-Dawley rats (250-300 g) were selected for the experiment. […] The anesthesia effects of the compounds were assessed in rats using a LORR assay and a period >30 s was considered as an indicator of general anesthesia. Then the up and down method was used to determine 50% effective dose (ED50). The drugs were administered through the tail vein of rats in a volume of 0.6 mL and at a rate of 0.1 mL/s.

rats [3] = experiment: Pharmacological characteristics at equivalent doses (2×ED50) in rats; conditions: 2×ED50, tail vein; for Adverse reactions: Red urine (incidence): DMSO solution (DMSO alone 10/10); for Onset time: time of LORR; for Adverse reactions: Tremor (incidence): animals affected/animals
How it was run: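 Adult male Sprague-Dawley rats (250-300 g, n=8) received each drug at twice its ED50 via tail vein (0.6 mL at 0.1 mL/s). Onset of anesthesia taken as time to LORR.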

[4] = system: secretion of corticosterone, H295R cell line; experiment: cells; format: cell-based; conditions: for EC50: read-out: EC50 (Corticosterone)
Protocol: (§1) The Effects of the Compounds on Adrenocortical Function In Vitro Test
(§2) Then secretion of the cortisol and corticosterone in the supernatant, was measured using HPLC-MS/MS method to determine whether the compounds of the present invention had adrenotoxic potential.

[5] = system: secretion of cortisol, H295R cell line; experiment: cells; format: cell-based; conditions: for EC50: read-out: EC50 (Cortisol)
Protocol: as §1, §2

rats [6] = format: in vivo, rat; conditions: for recovery time of the test animals' righting reflex: rats of the MAP/HR figures, 2×ED50, tail vein, same value in min
How it was run: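 Rats implanted with telemetry (left ventricular and abdominal aortic catheters, ECG leads) at least one week before recording; compounds given via lateral tail-vein catheter. MAP and HR sampled every 15 s for 30 min before and after dosing to judge hemodynamic stability.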

rats [7] = format: in vivo, rat; conditions: rats of the MAP/HR figures, 2×ED50, tail vein
rats [8] = system: rats; remark: listed apart in the source
Protocol: Pharmacological Effects of the Compounds on Continuous Infusion in Rats
Adult male Sprague-Dawley rats with body weight ranging from 250 to 300 gm were selected for continuous infusion test. […] Time to recovery of righting reflex from stopping infusion, and time to fully awake from stopping infusion were recorded.

[9] = H295R cell line, 0.1-10000 nM, HPLC-MS/MS, Table D3
[10] = continuous tail vein infusion at 2×MIR, LORR maintained 1 hour, Table E4
[11] = H295R cell line, 0.1-10000 nM, HPLC-MS/MS, Table E3
[12] = continuous tail vein infusion at 2×MIR, LORR maintained 1 hour, Table C4
[13] = continuous tail vein infusion at 2×MIR, LORR maintained 1 hour, Table D4

CC(OC(=O)c1cncn1[C@H](C)c1ccccc1)C1CO1 (stereo partly shown) [Compound B20]
ED50 (rats [1]; class symbols): 0.5 to 1 mg/kg
Approximate therapeutic index (rats [2]): >10
Minimal lethal dose (rats [2]): >17 mg/kg
Righting reflex duration (rats [3]): 2.59 ± 0.99 min
Adverse reactions: Red urine (incidence) (rats [3]): Red urine (8/8)
Onset time (rats [3]): 0.28 ± 0.14 min
Corticosterone as an indicator to determine the presence of inhibition ([4]; H295R, Table B3): 0
EC50 ([4]; Homo sapiens, NCI-H295R): > 1000 nM
Cortisol as an indicator to determine the presence of inhibition ([5]; H295R, Table B3): 0
EC50 ([5]; Homo sapiens, NCI-H295R): > 1000 nM
recovery time of the test animals' righting reflex (rats [6]): 2.68 min
recovery time of the test animals' righting reflex (rats [7]): 161 s

CC#CC1(OC(=O)c2cncn2[C@H](C)c2ccccc2)COC1 [Compound D39]
ED50 (rats [1]; class symbols): 0.5 to 1 mg/kg
Approximate therapeutic index (rats [2]): >15
Minimal lethal dose (rats [2]): >9 mg/kg
Adverse reactions: Hindlimb rigidity (incidence) (rats [3]): Hindlimb rigidity (1/8),
Adverse reactions: Myoclonus (incidence) (rats [3]): Myoclonus (1/8), Red
Righting reflex duration (rats [3]): 1.11 ± 0.34 min
Adverse reactions: Red urine (incidence) (rats [3]): urine (8/8)
Onset time (rats [3]): 0.20 ± 0.05 min
Corticosterone as an indicator to determine the presence of inhibition [4, 9]: 0
EC50 ([4]; Homo sapiens, NCI-H295R): > 1000 nM
Cortisol as an indicator to determine the presence of inhibition [5, 9]: 0
EC50 ([5]; Homo sapiens, NCI-H295R): > 1000 nM
recovery time of the test animals' righting reflex (rats [6]): 6.25 min
recovery time of the test animals' righting reflex (rats [7]): 375 s

C=C=CC1(OC(=O)c2c(F)ncn2[C@H](C)c2ccccc2)CCC1 [Compound E64]
ED50 (rats [1]; class symbols): 0.01 to 0.1 mg/kg
Approximate therapeutic index (rats [2]): >40
Minimal lethal dose (rats [2]): >1.5 mg/kg
Righting reflex duration (rats [3]): 2.28 ± 1.28 min
Adverse reactions: Red urine (incidence) (rats [3]): urine (8/8)
Adverse reactions: Tremor (incidence) (rats [3]): (2/8), Red
Onset time (rats [3]): 0.31 ± 0.06 min
recovery time of the test animals' righting reflex (rats [6]): 2.48 min
Onset time (rats [8]; [10]): 2 to 3 min
Recovery time after stopping infusion (rats [8]; [10]): 11 to 14 min
Types and incidence of adverse reactions (rats [8]; [10]): No
recovery time of the test animals' righting reflex (rats [7]): 149 s

C=C=CC1(SC(=O)c2c(F)ncn2[C@H](C)c2ccccc2)CSC1 [Compound E90]
ED50 (rats [1]; class symbols): 0.01 to 0.1 mg/kg
Approximate therapeutic index (rats [2]): >30
Minimal lethal dose (rats [2]): >1.5 mg/kg
Righting reflex duration (rats [3]): 1.29 ± 0.64 min
Adverse reactions: Red urine (incidence) (rats [3]): urine (8/8)
Adverse reactions: Tremor (incidence) (rats [3]): (1/8), Red
Onset time (rats [3]): 0.50 ± 0.20 min
recovery time of the test animals' righting reflex (rats [6]): 1.42 min
Onset time (rats [8]; [10]): 2 to 3 min
Recovery time after stopping infusion (rats [8]; [10]): 9 to 12 min
Types and incidence of adverse reactions (rats [8]; [10]): Tremor (2/6)
recovery time of the test animals' righting reflex (rats [7]): 85 s

CCOC(=O)c1c(Cl)ncn1[C@H](C)c1ccccc1 [Compound E100]
ED50 (mg/kg) (rats [1]; class symbols): B (B means that the measured ED50 is in the range of 0.10-0.50 mg/kg (excluding 0.10 mg/kg, including 0.50 mg/kg).)
Approximate therapeutic index (rats [2]): >30
Minimal lethal dose (rats [2]): >12 mg/kg
Righting reflex duration (rats [3]): 1.98 ± 1.85 min
Sedation duration (mg/kg) (rats [3]): 5.82 ± 2.11
Adverse reactions: Red urine (incidence) (rats [3]): urine (8/8)
Adverse reactions: Tremor (incidence) (rats [3]): (5/8), Red
Onset time (rats [3]): 0.60 ± 0.24 min
recovery time of the test animals' righting reflex (rats [6]): 1.83 min
Onset time (rats [8]; [10]): 2 to 3 min
Recovery time after stopping infusion (rats [8]; [10]): 9 to 14 min
Types and incidence of adverse reactions (rats [8]; [10]): Tremor (3/6)
recovery time of the test animals' righting reflex (rats [7]): 110 s

CC#CC(C)OC(=O)c1c(Cl)ncn1[C@H](C)c1ccccc1 (stereo partly shown) [Compound E116]
ED50 (rats [1]; class symbols): 0.5 to 1 mg/kg
Approximate therapeutic index (rats [2]): >16
Minimal lethal dose (rats [2]): >10 mg/kg
Righting reflex duration (rats [3]): 1.18 ± 0.56 min
Adverse reactions: Red urine (incidence) (rats [3]): (8/8)
Onset time (rats [3]): 0.61 ± 0.23 min
recovery time of the test animals' righting reflex (rats [6]): 1.53 min
Onset time (rats [8]; [10]): 3 to 4 min
Recovery time after stopping infusion (rats [8]; [10]): 11 to 15 min
Types and incidence of adverse reactions (rats [8]; [10]): Tremor (1/6), Tongue stretching (3/6)
recovery time of the test animals' righting reflex (rats [7]): 92 s

CCOC(=O)c1c(Cl)nc(Cl)n1[C@H](C)c1ccccc1 [Compound E129]
ED50 (rats [1]; class symbols): 0.1 to 0.5 mg/kg
Approximate therapeutic index (rats [2]): >30
Minimal lethal dose (rats [2]): >9 mg/kg
Righting reflex duration (rats [3]): 0.68 ± 0.34 min
Adverse reactions: Red urine (incidence) (rats [3]): urine (8/8)
Adverse reactions: Tremor (incidence) (rats [3]): (3/8), Red
Onset time (rats [3]): 0.87 ± 0.26 min
recovery time of the test animals' righting reflex (rats [6]): 0.87 min
Onset time (rats [8]; [10]): 3 to 4 min
Recovery time after stopping infusion (rats [8]; [10]): 8 to 13 min
Types and incidence of adverse reactions (rats [8]; [10]): No
recovery time of the test animals' righting reflex (rats [7]): 52 s

C[C@H](c1ccccc1)n1c(Cl)nc(Cl)c1C(=O)OC1CSC1 [Compound E133]
ED50 (rats [1]; class symbols): 0.5 to 1 mg/kg
Approximate therapeutic index (rats [2]): >12
Minimal lethal dose (rats [2]): >10 mg/kg
Righting reflex duration (rats [3]): 2.10 ± 0.86 min
Adverse reactions: Red urine (incidence) (rats [3]): urine (8/8)
Adverse reactions: Tremor (incidence) (rats [3]): (4/8), Red
Onset time (rats [3]): 0.25 ± 0.10 min
recovery time of the test animals' righting reflex (rats [6]): 2.30 min
Onset time (rats [8]; [10]): 3 to 4 min
Recovery time after stopping infusion (rats [8]; [10]): 9 to 12 min
Types and incidence of adverse reactions (rats [8]; [10]): Tremor (4/6)
recovery time of the test animals' righting reflex (rats [7]): 138 s

C#CC1(OC(=O)c2c(Cl)nc(Cl)n2[C@H](C)c2ccccc2)COC1 [Compound E148]
ED50 (rats [1]; class symbols): 0.5 to 1 mg/kg
Approximate therapeutic index (rats [2]): >12
Minimal lethal dose (rats [2]): >10 mg/kg
Righting reflex duration (rats [3]): 0.49 ± 0.38 min
Adverse reactions: Red urine (incidence) (rats [3]): urine (8/8)
Adverse reactions: Tremor (incidence) (rats [3]): (5/8), Red
Onset time (rats [3]): 0.75 ± 0.24 min
recovery time of the test animals' righting reflex (rats [6]): 0.97 min
Onset time (rats [8]; [10]): 3 to 4 min
Recovery time after stopping infusion (rats [8]; [10]): 11 to 16 min
Types and incidence of adverse reactions (rats [8]; [10]): Myoclonus (2/6), Tremor (3/6)
recovery time of the test animals' righting reflex (rats [7]): 58 s

CCOC(=O)c1cncn1[C@H](C)c1ccccc1 [Etomidate, ethyl R-(+)-1-(1-phenylethyl)-1H-imidazol-5-carboxylate, reference compound]
ED50 (rats [1]; brackets = 95% confidence limit): 0.75 mg/kg
Minimal lethal dose (rats [2]): 12.75 mg/kg
Corticosterone as an indicator to determine the presence of inhibition [4, 9]: 2
Corticosterone as an indicator to determine the presence of inhibition [4, 11]: 2
Corticosterone as an indicator to determine the presence of inhibition ([4]; H295R, Table A3): 2
Corticosterone as an indicator to determine the presence of inhibition ([4]; H295R, Table B3): 2
Corticosterone as an indicator to determine the presence of inhibition ([4]; H295R, Table C3): 2
EC50 ([4]; Homo sapiens, NCI-H295R): > 10 nM
EC50 [4, 9]: > 10 nM
EC50 [4, 11]: > 10 nM
Cortisol as an indicator to determine the presence of inhibition [5, 9]: 2
Cortisol as an indicator to determine the presence of inhibition [5, 11]: 2
Cortisol as an indicator to determine the presence of inhibition ([5]; H295R, Table A3): 2
Cortisol as an indicator to determine the presence of inhibition ([5]; H295R, Table B3): 2
Cortisol as an indicator to determine the presence of inhibition ([5]; H295R, Table C3): 2
EC50 ([5]; Homo sapiens, NCI-H295R): > 1 nM
EC50 [5, 9]: > 1 nM
EC50 [5, 11]: > 1 nM
recovery time of the test animals' righting reflex (rats [6]): 7.33 min
effect on the circulatory function (MAP, HR) (rats [6]; rats, 2×ED50, 30 min after administration): almost no inhibitory effect on the circulatory function
Recovery time after stopping infusion (rats [8]; after 1 hour infusion at 2×MIR): 25 to 30 min
Adverse reactions: Facial muscle twitching (incidence) (rats [8]; continuous infusion 2×MIR): twitching (4/6), Tongue stretching
Adverse reactions: Tongue stretching (incidence) (rats [8]; continuous infusion 2×MIR): (5/6)
Adverse reactions: Tremor (incidence) (rats [8]; continuous infusion 2×MIR): 6/6
Onset time (rats [8]; [12]): 4 to 5 min
Recovery time after stopping infusion (rats [8]; [12]): 25 to 30 min
Onset time (rats [8]; [13]): 4 to 5 min
Recovery time after stopping infusion (rats [8]; [13]): 25 to 30 min
Onset time (rats [8]; [10]): 4 to 5 min
Recovery time after stopping infusion (rats [8]; [10]): 25 to 30 min
Onset time (rats [8]; emulsion, continuous infusion at 2×MIR): 4 to 5 min
recovery time of the test animals' righting reflex (rats [7]): 440 s
